The values below come from patent US7432365B1, “DNA molecules encoding beta clamp proteins of gram positive bacteria” (priority 1998, dated 2008).

First the molecules themselves.
B1: Streptococcus pyogenes δ subunit (holA gene product) (other)
chain: MIAIEKIEKLSKENLGLITLVTGDDIGQYSQLKSRLMEQIAFDKDDLAYSYFDMSEAAYQDAEMDLVSLPFFAEQKVVIFDHLLDITTNKKSFLKEKDLKAFEAYLENPLETTRLIIFAPGKLDSKRRLVKLLKRDALVLEANPLKEAELRTYFQKYSHQLGLGFESGAFDQLLLKSNDDFSQIMKNMAFLKAYKKTGNISLTDIEQAIPKSLQDNIFDLTRLVLGGKIDAARDLIHDLRLSGEDDIKLIAIMLGQFRLFLQLTILARDVKNEQQLVISLSDILGRRVNPYQVKYALKDSRTLSLAFLTGAVKTLIETDYQIKTGLYEKSYLVDIALLKIMTHSQK
notes: also called delta; putative δ
B2: Streptococcus pyogenes τ subunit (dnaX gene product) (other)
chain: MYQALYRKYRSQTFDEMVGQSVISTTLKQAVESGKISHAYLFSGPRGTGKTSAAKIFAKAMNCPNQVDGEPCNQCDICRDITNGSLEDVIEIDAASNNGVDEIRDIRDKSTYAPSRATYKVYIIDEVHMLSTGAFNALLKTLEEPTENVFILATTELHKIPATILSRVQRFEFKAIKQKAIREHLAWVLDKEGIAYEVDALNLIARRAEGGMRDALSILDQALSLSPDNQVAIAIAEEITGSISILALGDYVRYVSQEQATQALAALETIYDSGKSMSRFATDLLTYLRDLLVVKAGGDNQRQSAVFDTNLSLSIDRIFQMITVVTSHLPEIKKGTHPRIYAEMMTIQLAQKEQILSQVNLSGELISEIETLKNELAQLKQQLSQLQSRPDSLARSDKTKPKTTSYRVDRVTILKIMEETVRNSQQSRQYLDALKNAWNEILDNISAQDRALLMGSEPVLANSENAILAFEAAFNAEQVMSRNNLNDMFGNIMSKAAGFSPNILAVPRTDFQHIRKEFAQQMKSQKDSVQEEQEVALDIPEGFDFLLDKINTIDD
notes: also called tau; DnaX-protein

In one assay the target is Pol I (Bacillus subtilis, UniProt O34996). The settings on record: cited from earlier work.
For a further assay, the system named is Peak2 (Pol II). Briefly: DNA polymerase assay in presence or absence of pCMB, NEM, 0.15 M KCl. It is filed as biochemical, Staphylococcus aureus. The settings on record: S. aureus Peak2. As to the method:
(§1) These assays were used in the purification of DNA polymerases from S. aureus cell extracts. Assays contained 2.5 μg activated calf thymus DNA in a final volume of 25 μl replication buffer. An aliquot of the fraction to be assayed was added to the assay mixture on ice followed by incubation at 37° C. for 5 min. DNA synthesis was quantitated using DE81 paper as described in Rowen et al., “Primase, the DnaG Protein of Escherichia coli. An Enzyme Which Starts DNA Chains,” J. Biol. Chem., 253:758-764 (1979), which is hereby incorporated by reference.
(§2) Next, it was determined which of these peaks of DNA polymerase activity correspond to DNA polymerases 1, I, and III, and which peak is the unidentified DNA polymerase. In the Gram positive bacterium B. subtilis, Pol III is inhibited by pCMB, NEM, and 0.15 M NaCl, Pol II is inhibited by KCl, but not NEM or 0.15 M KCL, and Pol I is not inhibited by any of these treatments (Gass et al., “Further Genetic and Enzymological Characterization of the Three Bacillus subtilis Deoxyribonucleic Acid Polymerases,” J. Biol. Chem., 248:7688-7700 (1973), which is hereby incorporated by reference).

For the next assay, the system named is Peak3 (Pol I). Described as above. It is filed as biochemical, Staphylococcus aureus. The note with it: S. aureus Peak3. As to the method: (§3) These assays were used in the purification of DNA polymerases from S. aureus cell extracts. Assays contained 2.5 μg activated calf thymus DNA in a final volume of 25 μl replication buffer. An aliquot of the fraction to be assayed was added to the assay mixture on ice followed by incubation at 37° C. for 5 min.
(§4) Next, it was determined which of these peaks of DNA polymerase activity correspond to DNA polymerases 1, I, and III, and which peak is the unidentified DNA polymerase. In the Gram positive bacterium B. subtilis, Pol III is inhibited by pCMB, NEM, and 0.15 M NaCl, Pol II is inhibited by KCl, but not NEM or 0.15 M KCL, and Pol I is not inhibited by any of these treatments (Gass et al., “Further Genetic and Enzymological Characterization of the Three Bacillus subtilis Deoxyribonucleic Acid Polymerases,” J. Biol. Chem., 248:7688-7700 (1973), which is hereby incorporated by reference). […] Peak 3 clearly corresponded to Pol I, because it was not inhibited by NEM, pCMB, or 0.15 M NaCl. Peak 2 correspond to Pol II, because it was not inhibited by NEM, but was inhibited by pCMB and 0.15 M NaCl. Peaks 1 and 4 both had characteristics that mimic Pol III; however, peak 4 elutes on MonoQ at a similar position as Pol III-L expressed in E. coli (see FIG. 2B).

Another assay has as its system Peak1 (new polymerase). The description is as above. The settings on record: S. aureus Peak1. The assay is classed as biochemical, Staphylococcus aureus. As to the method: as §3, §4
A further assay relates to Pol II. The settings on record: cited from earlier work.
The target in the next assay is T1, Peak4 (Pol III-L) (Staphylococcus aureus, UniProt P0C1P9).
T1 construct: peak 4 (last peak off Mono Q); endogenous in cells; host or cells: S. aureus strain 4220 lysate, MonoQ peak 4 (partially pure)
T1 sequence (P0C1P9 1-1435): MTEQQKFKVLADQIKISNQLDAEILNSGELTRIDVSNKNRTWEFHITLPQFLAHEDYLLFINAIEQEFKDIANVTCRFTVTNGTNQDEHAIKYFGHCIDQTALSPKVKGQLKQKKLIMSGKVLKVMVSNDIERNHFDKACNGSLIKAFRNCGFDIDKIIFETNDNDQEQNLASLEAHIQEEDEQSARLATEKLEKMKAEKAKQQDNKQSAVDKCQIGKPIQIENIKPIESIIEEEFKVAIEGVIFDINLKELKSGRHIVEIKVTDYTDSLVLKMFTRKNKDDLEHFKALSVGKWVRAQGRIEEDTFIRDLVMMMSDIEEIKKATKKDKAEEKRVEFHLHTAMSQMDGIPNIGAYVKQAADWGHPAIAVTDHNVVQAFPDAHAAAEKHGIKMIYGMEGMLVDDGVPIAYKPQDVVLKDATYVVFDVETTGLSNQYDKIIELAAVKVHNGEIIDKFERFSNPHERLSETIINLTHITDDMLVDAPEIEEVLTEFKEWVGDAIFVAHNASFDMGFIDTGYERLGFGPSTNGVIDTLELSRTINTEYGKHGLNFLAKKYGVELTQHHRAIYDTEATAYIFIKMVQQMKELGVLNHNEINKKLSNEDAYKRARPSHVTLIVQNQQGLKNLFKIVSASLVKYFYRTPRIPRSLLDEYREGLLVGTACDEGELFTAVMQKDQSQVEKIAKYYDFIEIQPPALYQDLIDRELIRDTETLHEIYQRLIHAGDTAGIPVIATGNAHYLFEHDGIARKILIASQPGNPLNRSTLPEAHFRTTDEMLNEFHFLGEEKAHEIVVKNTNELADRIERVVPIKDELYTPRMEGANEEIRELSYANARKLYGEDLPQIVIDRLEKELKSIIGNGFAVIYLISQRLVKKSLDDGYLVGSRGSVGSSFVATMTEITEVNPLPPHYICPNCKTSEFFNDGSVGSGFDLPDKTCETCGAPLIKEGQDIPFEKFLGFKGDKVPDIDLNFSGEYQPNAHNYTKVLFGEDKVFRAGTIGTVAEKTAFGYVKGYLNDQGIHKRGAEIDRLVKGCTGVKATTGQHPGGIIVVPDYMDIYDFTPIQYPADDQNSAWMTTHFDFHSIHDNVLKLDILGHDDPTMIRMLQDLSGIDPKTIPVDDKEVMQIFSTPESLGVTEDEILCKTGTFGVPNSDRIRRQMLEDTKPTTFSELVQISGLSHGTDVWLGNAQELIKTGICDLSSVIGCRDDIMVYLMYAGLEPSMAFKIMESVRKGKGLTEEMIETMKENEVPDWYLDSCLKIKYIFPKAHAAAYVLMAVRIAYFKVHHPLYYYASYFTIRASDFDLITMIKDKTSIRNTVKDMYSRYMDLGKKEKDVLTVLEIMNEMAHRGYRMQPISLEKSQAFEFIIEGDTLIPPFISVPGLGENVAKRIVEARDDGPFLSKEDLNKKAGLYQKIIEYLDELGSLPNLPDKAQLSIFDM
Briefly: DNA polymerase assay in presence or absence of pCMB, NEM, 0.15 M KCl. The assay is classed as biochemical. The settings on record: S. aureus Peak4. As to the method:
as §1, §2

The target of another assay is Pol III-L (Bacillus subtilis, UniProt P13267). The settings on record: Pol III / Pol III-L; cited from earlier work.
For assay [1], the target named is Staphylococcus aureus beta subunit (dnaN gene product) (Staphylococcus aureus) (UniProt P0A022). Nature of the assay: cell-based or functional assay.
The target in assay [2] is T2, Streptococcus pyogenes δ′ subunit (holB gene product) (Streptococcus pyogenes).
T2 construct: also called delta prime; 6′
T2 chain: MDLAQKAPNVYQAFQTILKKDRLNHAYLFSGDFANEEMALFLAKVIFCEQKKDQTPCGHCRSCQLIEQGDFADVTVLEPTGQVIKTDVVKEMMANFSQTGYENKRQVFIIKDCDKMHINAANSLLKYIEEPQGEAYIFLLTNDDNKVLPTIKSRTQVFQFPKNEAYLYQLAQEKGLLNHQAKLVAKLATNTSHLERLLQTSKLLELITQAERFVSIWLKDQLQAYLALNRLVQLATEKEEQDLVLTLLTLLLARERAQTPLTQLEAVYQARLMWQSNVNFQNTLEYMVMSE
Briefly: gel filtration on Superose 6 of an α-large, τ, δ, δ′ mixture, SDS-PAGE of fractions.

The target in assay [3] is B1. Briefly: gel filtration on Superose 6 in buffer A with 100 mM NaCl, SDS-PAGE of fractions.
The target in assay [4] is T2, Streptococcus pyogenes δ′ subunit (holB …). The assay is described as above.

Pol I, sequence (O34996 whole entry): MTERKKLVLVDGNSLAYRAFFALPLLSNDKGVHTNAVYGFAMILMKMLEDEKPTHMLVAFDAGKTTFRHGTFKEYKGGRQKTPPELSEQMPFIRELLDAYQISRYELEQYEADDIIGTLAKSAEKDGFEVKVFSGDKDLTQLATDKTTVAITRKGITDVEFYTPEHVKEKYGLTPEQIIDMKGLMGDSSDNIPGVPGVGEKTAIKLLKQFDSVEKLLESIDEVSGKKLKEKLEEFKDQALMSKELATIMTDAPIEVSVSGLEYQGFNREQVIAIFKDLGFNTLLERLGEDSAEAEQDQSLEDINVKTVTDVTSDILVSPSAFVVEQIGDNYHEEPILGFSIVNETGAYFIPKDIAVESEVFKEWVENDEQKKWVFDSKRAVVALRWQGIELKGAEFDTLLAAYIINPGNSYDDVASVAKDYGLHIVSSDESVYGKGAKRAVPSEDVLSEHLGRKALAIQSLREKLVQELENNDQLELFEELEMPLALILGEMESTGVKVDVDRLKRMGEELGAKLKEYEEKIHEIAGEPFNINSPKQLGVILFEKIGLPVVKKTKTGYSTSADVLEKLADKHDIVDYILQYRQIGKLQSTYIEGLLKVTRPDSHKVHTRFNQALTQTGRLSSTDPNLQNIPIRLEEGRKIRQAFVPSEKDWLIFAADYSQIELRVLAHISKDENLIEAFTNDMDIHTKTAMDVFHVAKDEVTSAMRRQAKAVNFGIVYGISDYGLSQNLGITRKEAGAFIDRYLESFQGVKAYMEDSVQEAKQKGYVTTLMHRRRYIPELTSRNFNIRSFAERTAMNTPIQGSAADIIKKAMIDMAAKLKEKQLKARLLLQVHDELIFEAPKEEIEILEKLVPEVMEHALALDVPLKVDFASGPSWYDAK
Pol III-L, sequence (P13267 whole entry): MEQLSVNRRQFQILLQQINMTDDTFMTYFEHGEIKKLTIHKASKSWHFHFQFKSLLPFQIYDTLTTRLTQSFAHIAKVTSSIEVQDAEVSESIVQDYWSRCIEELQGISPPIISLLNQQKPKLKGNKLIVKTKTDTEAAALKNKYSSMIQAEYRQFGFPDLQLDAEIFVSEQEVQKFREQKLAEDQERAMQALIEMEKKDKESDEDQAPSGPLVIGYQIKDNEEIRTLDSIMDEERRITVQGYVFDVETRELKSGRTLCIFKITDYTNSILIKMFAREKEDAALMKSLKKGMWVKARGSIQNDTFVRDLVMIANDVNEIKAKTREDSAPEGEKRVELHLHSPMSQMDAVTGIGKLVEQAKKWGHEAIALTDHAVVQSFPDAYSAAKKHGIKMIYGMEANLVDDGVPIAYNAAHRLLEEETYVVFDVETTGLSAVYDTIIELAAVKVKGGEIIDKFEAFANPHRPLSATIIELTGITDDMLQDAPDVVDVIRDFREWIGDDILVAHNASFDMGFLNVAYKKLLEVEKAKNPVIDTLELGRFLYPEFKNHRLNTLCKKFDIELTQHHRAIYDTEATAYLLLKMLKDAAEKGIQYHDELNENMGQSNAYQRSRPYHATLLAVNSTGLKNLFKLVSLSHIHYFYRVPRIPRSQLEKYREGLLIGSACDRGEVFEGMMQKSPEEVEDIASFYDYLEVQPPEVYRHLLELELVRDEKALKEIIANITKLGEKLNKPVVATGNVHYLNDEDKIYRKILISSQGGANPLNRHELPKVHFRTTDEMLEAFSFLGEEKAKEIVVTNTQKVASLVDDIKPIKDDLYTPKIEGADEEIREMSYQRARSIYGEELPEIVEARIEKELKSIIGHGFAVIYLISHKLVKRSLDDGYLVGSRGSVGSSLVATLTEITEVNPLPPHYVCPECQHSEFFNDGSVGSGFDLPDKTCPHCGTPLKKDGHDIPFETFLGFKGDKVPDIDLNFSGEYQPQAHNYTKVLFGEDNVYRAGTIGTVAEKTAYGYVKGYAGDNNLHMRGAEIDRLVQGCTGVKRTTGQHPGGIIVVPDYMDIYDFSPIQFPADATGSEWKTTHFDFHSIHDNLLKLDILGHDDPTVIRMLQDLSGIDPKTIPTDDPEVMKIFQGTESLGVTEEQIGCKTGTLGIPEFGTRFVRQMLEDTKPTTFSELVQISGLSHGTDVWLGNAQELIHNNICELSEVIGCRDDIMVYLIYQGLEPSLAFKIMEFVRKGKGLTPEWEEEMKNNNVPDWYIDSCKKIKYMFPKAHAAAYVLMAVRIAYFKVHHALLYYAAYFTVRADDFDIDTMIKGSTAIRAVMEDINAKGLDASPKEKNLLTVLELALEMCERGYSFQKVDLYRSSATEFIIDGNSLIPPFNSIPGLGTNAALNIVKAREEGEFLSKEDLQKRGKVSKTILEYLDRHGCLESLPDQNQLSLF

Take `CCN1C(=O)C=CC1=O` [NEM]: the “Expected characteristics: inhibition of polymerase activity” value at Pol I is given as “not inhibited (Not inhibited is defined as greater than 75% remaining activity)”; in the assay with Pol II, “not inhibited (Not inhibited is defined as greater than 75% remaining activity)”; at Pol III-L it was “inhibited (Inhibited is defined as less than 40% remaining activity)”. Moreover, the “Observed characteristics: inhibition of polymerase activity” value was “not inhibited (Not inhibited is defined as greater than 75% remaining activity)” in the assay on Peak2 (Pol II), “not inhibited (Not inhibited is defined as greater than 75% remaining activity)” with Peak3 (Pol I), “inhibited (Inhibited is defined as less than 40% remaining activity)” in the assay on Peak1 (new polymerase) and “inhibited (Inhibited is defined as less than 40% remaining activity)” at Peak4 (Pol III-L).
Turning to “Escherichia coli clamp loader complex (gamma complex: gamma, delta, delta prime, chi, psi) (from UniProt P06710 2-431; P28630 1-343; P28631 1-334; P28905 1-147; P28632 1-137)”, the Total DNA synthesis on circular singly primed M13mp18 ssDNA, lane 3 (Pol III-L, S. aureus beta and E. coli clamp loader complex; lane 1 Pol III-L alone 0.6 pmol) in [1] was determined as 0.99 pmol.
For the molecule `O=C(O)c1cc[c]([Hg][Cl])cc1` [pCMB], the figures for the “Expected characteristics: inhibition of polymerase activity” value at Pol I, in the assay on Pol II and on Pol III-L were “not inhibited* (Not inhibited is defined as greater than 75% remaining activity)”, “inhibited** (Inhibited is defined as less than 40% remaining activity)” and “inhibited (Inhibited is defined as less than 40% remaining activity)”, respectively. In addition, the “Observed characteristics: inhibition of polymerase activity” value is recorded as “inhibited (Inhibited is defined as less than 40% remaining activity)” in the assay with Peak2 (Pol II), “not inhibited (Not inhibited is defined as greater than 75% remaining activity)” in the assay on Peak3 (Pol I), “inhibited (Inhibited is defined as less than 40% remaining activity)” in the assay on Peak1 (new polymerase) and “inhibited (Inhibited is defined as less than 40% remaining activity)” at Peak4 (Pol III-L).
Regarding B1, in [2], the binding result is on record as “binds”.
Regarding B2, the binding result is reported as “no binding (tested: δ (200 µg) in 100 µl)” in assay [3] and “no binding (tested: δ′ (200 µg) in 100 µl)” in assay [4].
